Data taken from patent US6525091B2, “Substituted diarylureas as stimulators for Fas-mediated apoptosis” (Telik, Inc., priority 2001, dated 2003).

Columns and labels:
synoviocytes = test: Stimulation of Fas-mediated apoptosis with h-HFE7A anti-human Fas antibody, XTT cell viability, stimulation index; format: cell-based; conditions: 10 μM compound with h-HFE7A 1000 ng/mL, synoviocytes from rheumatoid arthritis patients, 16 hours
Text: Anti-human Fas antibody h-HFE7A, humanized antibody was obtained from Sankyo Co., Ltd. This antibody induces apoptosis when cross-linked with secondary antibody in vitro.
Samples of human synovium were obtained from rheumatoid arthritis patients at the time of total knee replacement surgery or synoviectomy. Synovial tissue was minced into small pieces and was digested with collagenase and cultured in Ham's F12 medium supplemented with 10% fetal bovine serum (F10F) in a humidified 5% CO2 atmosphere at 37° C. Adherent cells were considered as synoviocytes and were cultivated in F10 F.
Cell viability was determined with the XTT method described in Cancer Res. 48:4827 (1988). Ninety-six well flat plates were precoated with anti-human IgG. h-HFE7A (1000 ng/mL) and/or 10 μM of a compound of this invention were added and incubated for 2 hours. Synoviocytes were seeded (10,000/well) and incubated for 16 hours. Background wells received culture medium only. XTT (2,3-Bis[2-methoxy-4-nitro-sulfophenyl]-2H-tetrazolium-5-carboxanilide), final concentration 200 μg/mL, and phenazine methosulfate, final concentration 5 μM, were added to each well, and further incubated for 4 hours. The absorbance at 450 nm was measured and cell viability was determined as follows: [formula]
Enhancement of Fas-mediated apoptosis by compounds of this invention was determined by the stimulation index (SI): [formula] […]

hepatocytes = test: Fas-dependent apoptosis, FACS analysis of DNA fragmentation (propidium iodide) and annexin V staining; format: cell-based; conditions: at 10 μM
Method: Assays for Fas-dependent apoptosis are known in the art. See, for example, Ruiz-Ruiz et al, Cell Death Diff. 271 (1999); and Muller et al., J. Exp. Therap. 188:2033 (1998).
Apoptosis is identified by detection of the DNA fragmentation pattern characteristic of apoptotic cell death. In this Example, apoptosis is detected and measured by FACS® analysis carried out in a FACScan® flow cytometer (Becton Dickinson) using CellQuest software. Quantification of DNA fragmentation is performed by FACS® analysis of propidium iodide-stained nuclei as described in Nicolletti et al., J. Immunol. Methods 139:271-279 (1991). Hepatocytes floating in the culture medium are collected by centrifugation at 200×g. Adherent hepatocytes are harvested-by incubation with 1% trypsin for 1 min. The cells are washed in phosphate-buffered saline (PBS), suspended in hypotonic lysis buffer (0.1% sodium citrate, 0.1% Triton X, and […] propidium iodide) (Sigma) and incubated at 4° C. for 6 hours. Cells are then analyzed for DNA content by flow cytometry.
Early apoptotic changes are identified using annexin V-Fluos (Boehringer Mannheim) which binds to phosphatidylserine molecules (PS) exposed on apoptotic, but not normal, cell membranes (PS is normally restricted to the inner leaflet of the cell membrane bilayer). […] Cells are incubated for 10-15 min and analyzed on a flow cytometer using CellQuest software. […]

## O=C(Nc1ccc(Br)c([N+](=O)[O-])c1)Nc1ccc(Br)c([N+](=O)[O-])c1 [Compound 3]
synoviocytes
  Enhancement of Fas-mediated apoptosis, stimulation index (SI): positive (An SI over 2.0 was considered positive)
hepatocytes
  stimulation of Fas-dependent apoptosis: stimulation of Fas-dependent apoptosis
